Entries after “also recorded” stand apart in the source; their conditions may differ.
What was measured:
human 5-HT2C receptor = human 5-HT2C receptor (Homo sapiens (Human), UniProt P28335); test: cell-based; details: for EC50: 5-HT2C EC50 (nM)
Sprague Dawley rats = test: Forced swim test (FST) in rats; format: in vivo, rat; details: SC, 23.5 h pre-treatment, vs vehicle, in words
Procedure: Animals. Male Sprague Dawley rats, aged 8-10 weeks, were used in the experiments. Animals were housed in groups of 2 under controlled temperature (22±3° C.) and relative humidity (30-70%) conditions, with 12-hour light/dark cycles, and with ad libitum food and water. These studies were carried out in strict accordance with the requirements of the Committee for the Purpose of Control and Supervision of Experiments on Animals (CPCSEA), India. All efforts were made to minimize suffering.
Drugs and Drug Administration. Compounds were synthesized as described above. Desipramine HCl was commercially obtained. Test compounds, saline vehicle, and the positive control desipramine were administered subcutaneously (SC), with doses calculated based on the freebase for desipramine and based on the HCl salts for Compounds 22 and 23. Normal saline was used as the vehicle. All compounds were administered at a volume of 5 mL/kg. Test compounds and vehicle were administered 0.5 h after the start of the training swim (Swim 1) and 23.5 h before the test swim (Swim 2). […]
Behavioral scoring was conducted by observers who were blind to the treatment groups. Animals were continuously observed during Swim 2 and the total time spent engaging in the following behaviors was recorded: immobile, swimming, and climbing. […]

in vitro [1] = details: both, human, microsomes, HLM, 1 μM; for microsomal CLint: pH 7.4, Clint (μL/min/mg); for half-life: pH 7.4, t1/2 (min)
in vitro [2] = details: both, rat, microsomes, rat liver microsomes (RLM), 1 μM test compound, 0.50 mg/mL protein, NADPH; for microsomal CLint: pH 7.4, Intrinsic clearance (Clint); for half-life: pH 7.4, half-life (t1/2)
CYP3A4 = CYP3A4 (Homo sapiens (Human), UniProt P08684); test: in vitro; details: both, microsomes, pH 7.4
CYP2C19 = CYP2C19 (Homo sapiens (Human), UniProt P33261); test: in vitro; details: both, microsomes, pH 7.4
CYP2C9 = CYP2C9 (Homo sapiens (Human), UniProt P11712); test: in vitro; details: both, microsomes, pH 7.4
[3] = Pharmacokinetics in plasma of mice after SC administration; details: male, C57BL/6, mouse, 3.16 mg/kg

human 5-HT2C receptor, sequence (P28335 33-458 limits assumed): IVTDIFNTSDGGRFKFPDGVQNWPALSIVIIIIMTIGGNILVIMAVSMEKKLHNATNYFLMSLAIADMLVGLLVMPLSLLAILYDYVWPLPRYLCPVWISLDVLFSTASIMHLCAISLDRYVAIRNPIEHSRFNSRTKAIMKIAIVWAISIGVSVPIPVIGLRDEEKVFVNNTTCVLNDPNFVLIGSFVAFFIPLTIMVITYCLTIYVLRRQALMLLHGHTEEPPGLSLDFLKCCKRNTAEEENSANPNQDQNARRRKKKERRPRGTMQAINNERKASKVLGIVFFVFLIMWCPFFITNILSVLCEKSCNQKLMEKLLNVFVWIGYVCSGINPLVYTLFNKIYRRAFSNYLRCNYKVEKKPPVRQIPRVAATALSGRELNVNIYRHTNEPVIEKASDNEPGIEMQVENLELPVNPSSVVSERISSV
CYP3A4, sequence (P08684 whole entry, looked up): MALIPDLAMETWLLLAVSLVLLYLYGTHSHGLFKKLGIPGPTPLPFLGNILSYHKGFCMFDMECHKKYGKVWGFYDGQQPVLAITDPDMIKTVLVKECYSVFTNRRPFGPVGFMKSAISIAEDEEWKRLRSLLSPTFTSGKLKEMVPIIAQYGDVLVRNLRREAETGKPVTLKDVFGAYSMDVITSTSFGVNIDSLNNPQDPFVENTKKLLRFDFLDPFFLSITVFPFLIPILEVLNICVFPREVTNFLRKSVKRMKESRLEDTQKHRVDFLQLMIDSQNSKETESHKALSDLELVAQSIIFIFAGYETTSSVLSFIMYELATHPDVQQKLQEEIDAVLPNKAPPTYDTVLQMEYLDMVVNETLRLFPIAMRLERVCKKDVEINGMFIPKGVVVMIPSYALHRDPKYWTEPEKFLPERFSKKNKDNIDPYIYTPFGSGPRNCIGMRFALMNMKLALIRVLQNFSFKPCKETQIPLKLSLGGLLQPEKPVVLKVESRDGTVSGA
CYP2C19, sequence (P33261 whole entry, looked up): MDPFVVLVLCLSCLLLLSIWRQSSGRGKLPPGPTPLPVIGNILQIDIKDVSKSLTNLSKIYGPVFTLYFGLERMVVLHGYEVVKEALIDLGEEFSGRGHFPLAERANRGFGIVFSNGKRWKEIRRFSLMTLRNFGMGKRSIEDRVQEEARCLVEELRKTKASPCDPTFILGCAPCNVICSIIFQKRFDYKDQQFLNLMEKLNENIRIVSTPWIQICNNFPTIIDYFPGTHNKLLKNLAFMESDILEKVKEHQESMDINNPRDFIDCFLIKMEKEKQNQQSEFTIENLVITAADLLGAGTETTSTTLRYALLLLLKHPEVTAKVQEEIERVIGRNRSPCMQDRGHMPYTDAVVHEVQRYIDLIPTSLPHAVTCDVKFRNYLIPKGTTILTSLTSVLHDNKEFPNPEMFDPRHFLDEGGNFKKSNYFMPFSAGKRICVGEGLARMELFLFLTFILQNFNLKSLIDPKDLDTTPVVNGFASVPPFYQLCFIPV
CYP2C9, sequence (P11712 whole entry, looked up): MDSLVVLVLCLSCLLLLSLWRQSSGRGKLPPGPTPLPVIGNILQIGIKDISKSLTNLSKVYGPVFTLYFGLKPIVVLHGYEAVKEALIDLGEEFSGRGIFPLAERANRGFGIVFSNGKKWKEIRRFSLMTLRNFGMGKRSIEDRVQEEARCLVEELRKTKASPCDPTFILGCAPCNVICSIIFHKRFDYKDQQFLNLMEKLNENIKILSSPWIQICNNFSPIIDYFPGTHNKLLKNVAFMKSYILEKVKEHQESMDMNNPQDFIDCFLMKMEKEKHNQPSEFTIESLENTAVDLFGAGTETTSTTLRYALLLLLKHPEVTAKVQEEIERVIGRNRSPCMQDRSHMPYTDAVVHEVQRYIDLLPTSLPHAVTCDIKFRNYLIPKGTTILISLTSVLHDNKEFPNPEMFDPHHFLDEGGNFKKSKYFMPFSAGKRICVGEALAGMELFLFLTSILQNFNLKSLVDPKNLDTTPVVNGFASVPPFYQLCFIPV

Row | SMILES | 5-HT2C % Act @ Max Conc. (human 5-HT2C receptor) [%] | EC50 (human 5-HT2C receptor) [nM] | time immobile in the rat forced swim test (Sprague Dawley rats) | microsomal CLint (in vitro [1]) [µL/min/mg] | half-life (in vitro [1]) [min] | microsomal CLint (in vitro [2]) [µL/min/mg] | half-life (in vitro [2]) [min] | inhibition at 10 µM (CYP3A4) [%] | inhibition at 10 µM (CYP2C19) [%] | inhibition at 10 µM (CYP2C9) [%] | AUC(0-inf) [3] [ng·h/mL] | Cmax [3] [ng/mL] | Tmax [3] [min] | half-life [3] [min]
1 | CCCCCc1cc(OC)c(CC(C)N)cc1OC (stereo not shown) [Compound 23, 1-(2,5-dimethoxy-4-pentylphenyl)propan-2-amine] | 90.1 | 3.75 | significant reduction in the time spent immobile; also recorded: antidepressant-like effect | 15.8 | 87.6 | 76.4 | 18.1 | 26.2 | 41.5 | 0 | 398 | 173 | 30 | 116
2 | CCCc1cc(OC)c(CC(C)N)cc1OC (stereo not shown) [Compound 22, 1-(2,5-dimethoxy-4-propylphenyl)propan-2-amine] | 94.4 | 0.271 | significant reduction in the time spent immobile; also recorded: antidepressant-like effect | < 9.6 | > 145 | 245 | 5.65 | 13.7 | 12.3 | 0 | 780 | 253 | 30 | 88.2
